The values below come from patent US10772855B2, “N-bromotaurine solutions and emulsions against abnormal cells” (NASCO AD BIOTECHNOLOGY LABORATORY, priority 2016, dated 2020).

Molecules are shown by their SMILES. Entries after “also recorded” stand apart in the source; their conditions may differ.

The test system of data set [1] is (Normal fibroblast - control). As to the kind of experiment: Proliferation assay (cellular viability, crystal violet, OD 595 nm), normal fibroblast control. Format: cell-based. The conditions noted are these: human. The text has this:
(§1) Following, a more detailed description of the enhancement of the anti-proliferative effect obtained with the methodology of this invention, having the aqueous solutions of NBrT/taurine, is given. […]
(§2) The calculation of the increase of anti-proliferative activity in cancer cells with the methodology of this invention was made in comparison to the rate […] The effect of NBrT/taurine solutions with latter addition of NaOBr, namely the solutions of this present invention were compared with effect obtained by NBrT solutions without a surplus of Taurine and without latter addition of NaOBr using the same cell lines in the same experiment. […] The anti-proliferative effect on all cell cultures was measured as a means of cellular viability by Optical Density at 595 nm using a Tecan reader using a crystal violet reagent. All experiments were performed in triplicate and mean values were used.

Data set [2] concerns HLF-1 (Normal fibroblast - control). The description is as above. The format is cell-based. The conditions noted are these: NBrT concentration range of 12.5-40 μM; surplus of taurine, later addition of NaOBr at 24, 48 and 72 hours.
Excerpt: as §1, §2

The test system of data set [3] is cancer cell lines A549, PC3, MDA-MB 231, HeLa, HepG2. As to the kind of experiment: Anti-proliferative effect of stored versus fresh NBrT aqueous solutions. Format: cell-based. The conditions noted are these: aqueous solution in double distilled water or PBS left for 15, 30 or 45 days at room temperature or 4° C.; all cancer cell lines tested. The method, then:
During studies on NBrT anti-proliferative effect against cancer cells, aqueous solutions of NBrT in double distilled water or phosphate buffered saline where left for 15, 30 and 45 days in room temperature or at 4° C. The anti-proliferative effect of NBrT solutions was decreased by 30-40% each time a respective solution was tested that was left for 15, 30 or 45 days since time of production in comparison with the results of the anti-proliferative effect obtained from the same but fresh solution of NBrT, tested at the same day of production. The same results were noticed in all cancer cell lines tested (A549, PC3, MDA-MB 231, HeLa, and HepG2). The loss of anti-proliferative effect of the aqueous solutions of NBrT (15, 30, 45 days) was tightly connected with the loss of corresponding absorbance at 286 nm having as a reference that a solution of 10 mM NBrT has a peak at 430M^−1 cm^−1 at day of production.

In data set [4] the test system is skin of patients with acne vulgaris. As to conditions: NBrT up to 5 mM applied onto the skin of patients; cited from earlier work.
Data set [5] has as its system fibroblast-like synoviocytes. As to conditions: fibroblast-like synoviocytes that participate in rheumatoid arthritis; cited from earlier work.
For data set [6], the system named is hyper-proliferating cell lines A549, PC3, HeLa, MDA-MB 231, HepG2. As to the kind of experiment: Proliferation assays, statements for all cancer cell lines together. As to conditions: for enhancement of anti-proliferative effect against cancer cells as single parameter in NBrT solutions: surplus of taurine or later addition of NaOBr alone, NBrT 62.5-250 μM. Format: cell-based. The method, then: (§3) The same accounts by later addition of Taurine to a 200 mM concentration in a 40 mM NBrT solution to cause enhancement of anti-proliferative effect against cancer cells. The enhancement of anti-proliferative effect against cancer cells is achieved by the use of the surplus of taurine present in the solution that is thereafter reacting with a later addition of 40 μM NaOBr solution at 24, 48 and 72 hours of in vitro incubation of cancer cells. That is, with a 1% addition of 40 μM NaOBr solution in total volume of cell cultures at 24, 48 and 72 hours, i.e. 0.4 μM NaOBr, favorable circumstances for fresh NBrT synthesis are made in order to contribute to reaction against abnormally hyper-proliferative cells. […] Normally proliferating cell lines show an evident decrease in their proliferative ability when grown at concentrations of NBrT above 250 μM. It has to be noted that all cells tested are not affected in their proliferation rate when growing in the same medium containing 0.4-40 μM NaOBr. In general, in order to achieve acceleration of anti-proliferative effect on hyper-proliferating cells without causing damage on proliferation of normal cells the concentration of NBrT in solution is 1:5 the concentration of estimated Taurine and the addition of NaOBr solution at latter stages of treatment is 1:100 the concentration of NBrT and 1:500 the concentration of Taurine.
Following, a more detailed description of the enhancement of the anti-proliferative effect obtained with the methodology of this invention, having the aqueous solutions of NBrT/taurine, is given. Stock solution of 4 mM NBrT/20 mM taurine was diluted in final concentrations of 62.5, 125, 250 μM NBrT and 312.5, 625, 1250 μM taurine, respectively, in culture medium DMEM/10% FBS.
During cell cultivation NaOBr solutions of […] were added in 1:100 dilution to the corresponded 62.5, 125, and 250 μM NBrT and 312.5, 625, 1250 μM taurine every 24/48/72 hours. The calculation of the increase of anti-proliferative activity in cancer cells with the methodology of this invention was made in comparison to the rate of anti-proliferative effect that solutions of NBrT exert in final concentrations of 62.5, 125 and 250 μM in the same cultivation medium. The effect of NBrT/taurine solutions with latter addition of NaOBr, namely the solutions of this present invention were compared with effect obtained by NBrT solutions without a surplus of Taurine and without latter addition of NaOBr using the same cell lines in the same experiment. […] The anti-proliferative effect on all cell cultures was measured as a means of cellular viability by Optical Density at 595 nm using a Tecan reader using a crystal violet reagent. All experiments were performed in triplicate and mean values were used.

In data set [7] the test system is Prostaglandin E2 production. As to conditions: via Heme Oxygenase; cited from earlier work.
The next data set has as its system purulent leg ulcers. As to conditions: cited from earlier work.
The next data set relates to all cells tested. As to the kind of experiment: Proliferation rate of cells in medium containing NaOBr alone. Format: cell-based. The method, then: as §3, with “Taurine. […]” for “Taurine.”

Take `O=S(=O)(O)CCNBr` [NBrT, N-bromotaurine]: the “NBrT concentration at which normally proliferating cell lines show an evident decrease in their proliferative ability” value in data set [1] is listed as “above 250 μM”. For the same compound, in data set [2], the “effect on normally proliferating fibroblast cell line HFL-1” value was “literally no effect”. In addition, the “decrease of anti-proliferative effect in comparison with the same but fresh solution” value in data set [3] was 30-40%. Moreover, the “side effects on skin” value in data set [4] was “literally no side effect”. Further, the “IL6 and inflammatory mediators (PEG2)” value in [5] is given as “inhibit”. The “anti-proliferative effect on all hyper-proliferating cell lines tested” value in [6] (surplus of taurine and later addition of NaOBr at 24, 48 and 72 hours) is given as “accelerating anti-proliferative effect”. Moreover, the “Prostaglandin E2 production (eicosanoid PGE2)” value in data set [7] is reported as “inhibition of Prostaglandin E2 production”.
`O=S(=O)(O)CCNCl` [NCT, N-Chlorotaurine]: the tolerability and toxicity entry in the data set with purulent leg ulcers (applied locally onto patient's wounds) is given as “increased tolerability, low toxicity”. The “efficacy against purulent leg ulcers” value in the data set on purulent leg ulcers (phase II clinical study) is listed as “significant results against purulent leg ulcers”.
`[Na+].[O-]Br` [NaOBr]: in data set [6], the “enhancement of anti-proliferative effect against cancer cells as single parameter in NBrT solutions” value was “do not exert any enhancement; also recorded: do not confer enhancement”. In addition, the “proliferation rate of all cells tested” value with all cells tested (medium containing 0.4-4 μM NaOBr) and in the data set on all cells tested (medium containing 0.4-40 μM NaOBr) was “not affected” throughout.
With `NCCS(=O)(=O)O` [Taurine], the “enhancement of anti-proliferative effect against cancer cells as single parameter in NBrT solutions” value in [6] is listed as “do not exert any enhancement”; in data set [6] (listed as taurine), “do not confer enhancement”.
